What was measured:
[1] = test system: female Harlan nude mice implanted with H460 tumor cells; assay: H-460 tumor-bearing nude mice given chemotherapeutic agent with or without Compound A: premature morbidity and hematocrit
Experimental: To examine the effect of methods and compounds of the present invention on treatment of chemotherapy-induced anemia, the following study was performed. The human H-460 lung cancer cell line used was obtained from the National Cancer Institute. (Brower et al., (1986) Cancer Res 46:798-806.) Animals were maintained in a HEPA-filtered environment during the experimental period. Cages, food, and bedding were autoclaved. Animal diets were obtained from Harlan Teklad (Madison, Wis.). Hydrochloric acid, 0.15% (v/v), was added to the drinking water.
Compounds of the invention were pre-formulated in an aqueous vehicle consisting of 0.1% (w/w) Polysorbate 80 (JT Baker) and 0.5% (w/w) high viscosity carboxymethyl cellulose sodium (Spectrum) to achieve a final 10 ml/kg dosing (oral gavage).
A stock tumor was established by subcutaneously injecting a cell suspension into nude mice. The resulting tumor was maintained in nude mice subcutaneously as tumor stock prior to use. Tumor implantation was performed when the stock tumors were in log phase of growth. Before implantation, tumor tissue was harvested from stock mice and placed in RPMI-1640 medium. Necrotic tissues were dissected away and viable tissues were cut into 1-2 mm^2 pieces. In these experiments, 1×10^7H460 tumor cells were implanted subcutaneously to the flanks of female Harlan nude mice.
Treatment (administration of compounds of the present invention) was initiated when the inoculated tumors reached approximately 100 mm^3, and continued for four weeks.
These studies followed the guidelines of the Tumor Growth Delay (TGD) type, using a protocol that required individual animals to be humanely euthanized after reaching a set endpoint of tumor volume greater than or equal to 2 cc. At this endpoint, blood was also sampled and hematocrit (HCT) was determined.
These two chemotherapeutic are representative of two broad classes of conventional anti-tumor therapeutics: microtubule poisons (Paclitaxcel); and DNA-directed agents, including the sub-classification of DNA alkylating agents (Carboplatin). […]

[2] = Body weight of H-460 tumor-bearing nude mice given chemotherapeutic agent with or without Compound A; format: in vivo, female Harlan nude mice
Experimental: To examine the effects of compounds and methods of the present invention on weight loss associated with chemotherapeutic agents, the following study was performed. This experiment was carried out essentially as described above in Example 2. […] Cages, food, and bedding were autoclaved. Animal diets were obtained from Harlan Teklad (Madison, Wis.).
Body weights were monitored over time for individual animals. Changes in individual animal body weights over time are shown in FIGS. 3-8, and are presented as percent of initial body weight (treatment day 1), which was set at 100%.

[3] = test system: animal model of chemotherapy-induced anemia; format: in vivo, Sprague Dawley male rats
Experimental: Fifteen Sprague Dawley male rats (280-300 g) were obtained from Charles River Laboratories. On day 0, rats were treated by intraperitoneal (i.p.) injection with a single dose of saline (control; n=3) at 8 ml/kg, or Cisplatin (CP; Bedford Laboratories, Bedford Ohio) at either 7 mg/kg (7 ml/kg; n=6) or 10 mg/kg (10 ml/kg; n=6). Blood samples (0.2 ml) were collected on days 5, 9, and 16 as follows. Animals were anesthetized with isoflurane and 0.2 ml of blood was collected from the tail vein into a MICROTAINER EDTA-2K tube (Becton-Dickinson). Blood samples were processed for hematocrit as described above to determine the degree of anemia produced in each animal.
Beginning on day 19 of the study, one half of each cisplatin-treated group (n=3×2) and all of the control group were treated by oral gavage once per day for 5 consecutive days with a 2 ml/kg volume of 0.5% CMC (Sigma-Aldrich). […] Blood samples (0.5 ml) were collected as described above immediately prior to treatment and 4 days after treatment initiation. Blood samples were analyzed for CBC and reticulocyte counts as described above. On day 9 after initiation of oral treatment, a blood sample (0.1 ml) was collected and processed for hematocrit as described above.

SMILES: N.N.O=C([O-])C1(C(=O)[O-])CCC1.[Pt+2] [Carboplatin]
- hematocrit over time ([1]; Carboplatin alone (closed circles in FIG. 2)): significant decrease
- # animals morbid prematurely ([1]; Cmpd A 60 mg/kg p.o., Carboplatin 120 mg/kg i.p. Q7d): 6/10
- # animals reaching study endpoint ([1]; Cmpd A 60 mg/kg p.o., Carboplatin 120 mg/kg i.p. Q7d, endpoint tumor volume >= 2 cc): 4/10
- body weight pattern compared to non-treated vehicle control animals ([2]; chemotherapeutic agent alone (FIG. 5, FIG. 7)): pattern of weight loss
- animals with more than a 10% weight gain at any time during the study ([2]; number of animals of 10): 3 of 10
- animals that ended the study at a body weight below that at the start ([2]; number of animals of 10 per group): 7 of 10

SMILES: O=C(O)CNC(=O)c1nc(Cl)c2ccccc2c1O [Compound A, N—((1-chloro-4-hydroxy-isoquinoline-3-carbonyl)-amino)-acetic acid]
- hematocrit in Cisplatin-treated animals ([3]; 4 days after initiating treatment with Compound A, oral gavage once per day for 5 days (FIG. 1A)): increased hematocrit
- percent circulating reticulocytes ([3]; Cisplatin-treated animals, compared to those without Compound A (FIG. 1B)): increased
- hematocrit levels versus non-treated counterparts ([3]; Cisplatin-treated rats, day 9 post-treatment (FIG. 1A)): significantly higher
- body weight change at end of study ([2]; mouse, in vivo): overall net weight gain
- body weights during the time course of the study ([2]; mouse, in vivo, 60 mg/kg): increased gradually

SMILES: CC(=O)O[C@H]1C(=O)[C@@]2(C)[C@H]([C@H](OC(=O)c3ccccc3)[C@]3(O)C[C@H](OC(=O)[C@H](O)[C@@H](NC(=O)c4ccccc4)c4ccccc4)C(C)=C1C3(C)C)[C@]1(OC(C)=O)CO[C@@H]1C[C@@H]2O [Paclitaxel]
- animals that ended the study at a body weight below that at the start ([2]; mouse, in vivo): 2 of 10
- body weight pattern compared to non-treated vehicle control animals ([2]; mouse, in vivo): pattern of weight loss

— patent US7713986B2, “Compounds and methods for treatment of chemotherapy-induced anemia” (priority 2006, dated 2010)
